We go through 14 compounds from US10336702B2, “Pharmaceutically active compounds” (BERGENBIO ASA, priority 2015, dated 2019).

The IC50 is the concentration that gives 50% inhibition.

One test has as its target T1, p-Akt1 in LNCaP cells (Homo sapiens, UniProt P31749).
T1 construct: SureFire assays to detect cellular p-Akt1, p-Akt2 and p-Akt3 levels in WM115 cells (Akt2/3) and LNCaP cells (Akt1); endogenous in cells; host or cells: LNCaP (ECACC 89110211)
Put plainly: Phospho-Akt cellular SureFire assay, p-Akt1 in LNCaP cells. As to conditions: read-out: Biological Assay 2 IC50 (nM) Akt1 LNCaP. In kind it is cell-based. In short, it runs like this: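 LNCaP cells, 5×10^4/well, seeded overnight, switched to 0.1% FBS medium without insulin stimulation, then compound for 15 min at 37 °C (0.3% DMSO). Lysate p-Akt1 (pThr308) by AlphaScreen SureFire, two 2 h incubations at room temperature; IC50 by 4-parameter fit.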

In another test the target is T2, p-Akt3 in WM115 cells (Homo sapiens, UniProt Q9Y243).
T2 construct: SureFire assays to detect cellular p-Akt1, p-Akt2 and p-Akt3 levels in WM115 cells (Akt2/3) and LNCaP cells (Akt1); endogenous in cells; host or cells: WM115 (ECACC 91061232), insulin-stimulated
Put plainly: Phospho-Akt cellular SureFire assay, p-Akt3 in WM115 cells. In kind it is cell-based. As to conditions: insulin stimulated, read-out: Biological Assay 2 IC50 (nM) Akt3 WM115. The gist of the method: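 WM115 cells were serum-reduced to 0.1% FBS, stimulated with 100 nM insulin for 10 min, then exposed to compound (0.3% DMSO) for 15 min at 37 °C. Lysates were assayed for Thr308-phosphorylated Akt3 by AlphaScreen SureFire using an isoform-specific total Akt3 capture antibody. IC50 was derived from a 4-parameter fit.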

The target of a further test is T3, Akt1 (Homo sapiens, UniProt P31749).
T3 construct: unspecified tag, removed (detagged) (cleaved yes); purchased SignalChem and Proteros (Akt1); Merck Millipore (PDK1) 14-452 (PDK1); none given for Akt1
Put plainly: Akt activation assay (PDK1-mediated activation, LANCE Ultra crosstide TR-FRET), Akt1. In kind it is biochemical. As to conditions: read-out: Biological Assay 1 IC50 (nM) Akt1. The gist of the method: (§1)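 Unactivated Akt (5 nM Akt1, 15 or 5 nM Akt2, 3 or 5 nM Akt3, by supplier) preincubated with compound, then activated by 5 nM PDK1 on DOPS/DOPC/PtdIns(3,4,5)P3 vesicles with 100 μM ATP and 100 nM Ulight-crosstide, pH 7.5, 30 min. Eu-anti-phospho-crosstide TR-FRET (665/615 nm); IC50 by 4-parameter fit.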
For orientation: TR-FRET usually uses a lanthanide donor and a delayed reading to cut background.

The next test concerns the target T4, Akt3 (Homo sapiens, UniProt Q9Y243).
T4 construct: unspecified tag, removed (detagged) (cleaved yes); purchased SignalChem and Proteros (Akt3); Merck Millipore (PDK1) 14-452 (PDK1); none given for Akt3
Put plainly: Akt activation assay (PDK1-mediated activation, LANCE Ultra crosstide TR-FRET), Akt3. The class given is biochemical. The note with it: read-out: Biological Assay 1 IC50 (nM) Akt3. The gist of the method: as §1

A further test addresses T5, Akt2 (Homo sapiens, UniProt P31751).
T5 construct: unspecified tag, removed (detagged) (cleaved yes); purchased SignalChem and Proteros (Akt2); Merck Millipore (PDK1) 14-452 (PDK1); none given for Akt2
Put plainly: Akt activation assay (PDK1-mediated activation, LANCE Ultra crosstide TR-FRET), Akt2. In kind it is biochemical. As to conditions: read-out: Biological Assay 1 IC50 (nM) Akt2. In short, it runs like this: as §1

In a further test the target is T6, p-Akt2 in WM115 cells (Homo sapiens, UniProt P31751).
T6 construct: SureFire assays to detect cellular p-Akt1, p-Akt2 and p-Akt3 levels in WM115 cells (Akt2/3) and LNCaP cells (Akt1); endogenous in cells; host or cells: WM115 (ECACC 91061232), insulin-stimulated
The test is described as follows: Phospho-Akt cellular SureFire assay, p-Akt2 in WM115 cells. In kind it is cell-based. As to conditions: insulin stimulated, read-out: Biological Assay 2 IC50 (nM) Akt2 WM115. In short, it runs like this:
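WM115 cells in 0.1% FBS medium stimulated 10 min with 100 nM insulin, then exposed to compound for 15 min at 37° C (0.3% DMSO final). Lysates assayed by AlphaScreen with anti-(pThr308)Akt and isoform-specific total Akt2 antibodies; IC50 from 4-parameter fit.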

Some results are limits rather than exact numbers.

T1 sequence (P31749 whole entry): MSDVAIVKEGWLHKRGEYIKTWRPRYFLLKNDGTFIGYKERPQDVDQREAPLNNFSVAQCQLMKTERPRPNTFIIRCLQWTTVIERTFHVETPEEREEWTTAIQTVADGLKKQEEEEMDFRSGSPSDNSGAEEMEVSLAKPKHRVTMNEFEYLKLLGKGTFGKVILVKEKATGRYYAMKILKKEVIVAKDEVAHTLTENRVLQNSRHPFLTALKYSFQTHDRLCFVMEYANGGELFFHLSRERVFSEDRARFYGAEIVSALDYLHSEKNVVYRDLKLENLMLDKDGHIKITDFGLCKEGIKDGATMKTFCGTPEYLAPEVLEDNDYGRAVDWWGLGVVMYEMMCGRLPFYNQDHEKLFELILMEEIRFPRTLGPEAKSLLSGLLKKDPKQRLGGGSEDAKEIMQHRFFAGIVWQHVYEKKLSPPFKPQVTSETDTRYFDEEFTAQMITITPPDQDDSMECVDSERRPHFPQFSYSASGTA
T3 sequence (P31749 whole entry): as above
T6 sequence (P31751 whole entry): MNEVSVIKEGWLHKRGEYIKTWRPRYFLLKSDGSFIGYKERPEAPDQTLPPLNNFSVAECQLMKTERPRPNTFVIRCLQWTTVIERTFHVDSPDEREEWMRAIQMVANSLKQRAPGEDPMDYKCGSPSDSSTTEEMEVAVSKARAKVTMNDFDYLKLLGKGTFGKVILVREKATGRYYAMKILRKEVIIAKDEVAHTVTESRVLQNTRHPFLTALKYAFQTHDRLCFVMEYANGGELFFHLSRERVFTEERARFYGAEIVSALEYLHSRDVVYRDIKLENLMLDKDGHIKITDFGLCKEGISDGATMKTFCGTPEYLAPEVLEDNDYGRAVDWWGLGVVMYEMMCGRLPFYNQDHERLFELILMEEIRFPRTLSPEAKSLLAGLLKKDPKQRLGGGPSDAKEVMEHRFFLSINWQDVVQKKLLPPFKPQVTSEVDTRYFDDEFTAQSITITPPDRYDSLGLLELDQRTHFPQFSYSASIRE
T5 sequence (P31751 whole entry): as above
T4 sequence (Q9Y243 whole entry): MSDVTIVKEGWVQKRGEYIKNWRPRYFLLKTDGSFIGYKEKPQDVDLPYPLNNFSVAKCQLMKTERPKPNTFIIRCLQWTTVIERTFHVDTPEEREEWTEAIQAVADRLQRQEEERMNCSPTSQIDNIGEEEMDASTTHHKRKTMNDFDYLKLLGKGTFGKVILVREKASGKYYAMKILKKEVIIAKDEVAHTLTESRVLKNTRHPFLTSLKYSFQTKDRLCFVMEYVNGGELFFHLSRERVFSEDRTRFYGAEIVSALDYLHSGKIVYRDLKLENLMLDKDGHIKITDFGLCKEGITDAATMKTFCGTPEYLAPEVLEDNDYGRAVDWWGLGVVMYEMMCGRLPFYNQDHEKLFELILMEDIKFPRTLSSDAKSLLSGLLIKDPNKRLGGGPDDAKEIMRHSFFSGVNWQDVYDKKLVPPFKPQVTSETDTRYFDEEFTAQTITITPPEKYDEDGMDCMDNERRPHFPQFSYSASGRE
T2 sequence (Q9Y243 whole entry): as above

Take `COC(=O)N(C)[C@H]1CC[C@H](CC(=O)Nc2cc(-c3ccccc3)c(-c3ccc(C4(N)CC(F)(F)C4)cc3)nn2)CC1` [Example 60, Methyl (trans-4-(2-((6-(4-(1-amino-3,3-difluorocyclobutyl)phenyl)-5-phenylpyridazin-3-yl)amino)-2-oxoethyl)cyclohexyl)(methyl)carbamate]: the IC50 was > 30000 nM on p-Akt1 in LNCaP cells; 290 nM on p-Akt3 in WM115 cells; > 30000 nM at Akt1; 50 nM on Akt3; 710 nM on Akt2; 8800 nM on p-Akt2 in WM115 cells.

Consider `NC1(c2ccc(-c3nnc(NC(=O)C[C@H]4CC[C@H](N5CCOC5=O)CC4)cc3-c3ccccc3)cc2)CC(F)(F)C1` [Example 61, N-(6-(4-(1-amino-3,3-difluorocyclobutyl)phenyl)-5-phenylpyridazin-3-yl)-2-(trans-4-(2-oxooxazolidin-3-yl)cyclohexyl)acetamide], for which the IC50 is > 30000 nM on p-Akt1 in LNCaP cells; 66 nM at p-Akt3 in WM115 cells; > 22800 nM on Akt1; 17 nM on Akt3; 200 nM at Akt2; > 10500 nM on p-Akt2 in WM115 cells.

`CC(=O)N(C)[C@H]1CC[C@H](CC(=O)Nc2cc(-c3ccccc3)c(-c3ccc(C(C)(C)N)cc3)cn2)CC1` [Example 63, N-(5-(4-(2-aminopropan-2-yl)phenyl)-4-phenylpyridin-2-yl)-2-(trans-4-(N-methylacetamido)cyclohexyl)acetamide]: the IC50 at p-Akt1 in LNCaP cells is > 30000 nM; on p-Akt3 in WM115 cells, 360 nM; on Akt1, > 30000 nM; on Akt3 it was 300 nM; at Akt2, > 30000 nM; on p-Akt2 in WM115 cells it was > 28000 nM.

For the compound `CC(C)(N)c1ccc(-c2cnc(NC(=O)C[C@H]3CC[C@H](N4CCOC4=O)CC3)cc2-c2ccccc2)cc1` [Example 64, N-(5-(4-(2-aminopropan-2-yl)phenyl)-4-phenylpyridin-2-yl)-2-(trans-4-(2-oxooxazolidin-3-yl)cyclohexyl)acetamide], the 50% inhibitory concentration (IC50) on p-Akt1 in LNCaP cells was > 30000 nM; on p-Akt3 in WM115 cells, 210 nM; at Akt1, > 30000 nM; on Akt3 it was 180 nM; at Akt2, 2800 nM; on p-Akt2 in WM115 cells it was 6600 nM.

Consider `CC(C)(N)c1ccc(-c2nnc(NC(=O)C[C@H]3CC[C@H](N4CCOC4=O)CC3)cc2-c2ccccc2)cc1` [Example 65, N-(6-(4-(2-aminopropan-2-yl)phenyl)-5-phenylpyridazin-3-yl)-2-(trans-4-(2-oxooxazolidin-3-yl)cyclohexyl)acetamide], for which the IC50 was > 30000 nM on p-Akt1 in LNCaP cells; 190 nM on p-Akt3 in WM115 cells; > 30000 nM at Akt1; 61 nM at Akt3; 4100 nM on Akt2; 6500 nM on p-Akt2 in WM115 cells.

In the case of `NC1(c2ccc(-c3nnc(NC(=O)C[C@H]4CC[C@H](N5CCOC5=O)CC4)cc3-c3ccccc3)cc2)CCC1` [Example 66, N-(6-(4-(1-aminocyclobutyl)phenyl)-5-phenylpyridazin-3-yl)-2-(trans-4-(2-oxooxazolidin-3-yl)cyclohexyl)acetamide], the IC50 on p-Akt1 in LNCaP cells worked out at 9800 nM; on p-Akt3 in WM115 cells it was 48 nM; on Akt1, 7200 nM; on Akt3, 5 nM; at Akt2 it was 150 nM; on p-Akt2 in WM115 cells, 940 nM.

With `COC(=O)N(C)[C@H]1CC[C@H](CC(=O)Nc2cc(-c3ccccc3)c(-c3ccc([C@]4(N)C[C@](C)(O)C4)cc3)cn2)CC1` [Example 67, Methyl (trans-4-(2-((5-(4-(trans-1-amino-3-hydroxy-3-methylcyclobutyl)phenyl)-4-phenylpyridin-2-yl)amino)-2-oxoethyl)cyclohexyl)(methyl)carbamate], the IC50 is > 9300 nM at p-Akt1 in LNCaP cells; 37 nM on p-Akt3 in WM115 cells; > 6500 nM on Akt1; 8 nM on Akt3; 180 nM at Akt2; 1500 nM at p-Akt2 in WM115 cells.

On to `CC(C)(N)c1ccc(-c2nnc(NC(=O)C[C@H]3CC[C@H](N4CCOC4=O)CC3)nc2-c2ccccc2)cc1` [Example 69, N-(6-(4-(2-aminopropan-2-yl)phenyl)-5-phenyl-1,2,4-triazin-3-yl)-2-(trans-4-(2-oxooxazolidin-3-yl)cyclohexyl)acetamide], for which the half-maximal inhibitory concentration (IC50) was > 30000 nM at p-Akt1 in LNCaP cells; 480 nM on p-Akt3 in WM115 cells; > 30000 nM on Akt1; 1800 nM at Akt3; > 30000 nM on Akt2; > 30000 nM at p-Akt2 in WM115 cells.

With `NC1(c2ccc(-c3cnc(NC(=O)C[C@H]4CC[C@H](N5CCOC5=O)CC4)cc3-c3ccsc3)cc2)CCC1` [Example 70, N-(5-(4-(1-aminocyclobutyl)phenyl)-4-(thiophen-3-yl)pyridin-2-yl)-2-(trans-4-(2-oxooxazolidin-3-yl)cyclohexyl)acetamide], the IC50 at p-Akt1 in LNCaP cells is > 30000 nM; on p-Akt3 in WM115 cells, 39 nM; at Akt1, > 30000 nM; at Akt3, 42 nM; on Akt2 it was 830 nM; at p-Akt2 in WM115 cells, 910 nM.

`CN(C(=O)C1CC1)[C@H]1CC[C@H](CC(=O)Nc2cc(-c3ccccc3)c(-c3ccc([C@]4(N)C[C@H](F)C4)cc3)nn2)CC1` [Example 71, N-(trans-4-(2-((6-(4-(trans-1-amino-3-fluorocyclobutyl)phenyl)-5-phenylpyridazin-3-yl)amino)-2-oxoethyl)cyclohexyl)-N-methylcyclopropanecarboxamide]: the IC50 is 9100 nM at p-Akt1 in LNCaP cells; 44 nM on p-Akt3 in WM115 cells; 10000 nM at Akt1; 16 nM at Akt3; 350 nM at Akt2; 1300 nM at p-Akt2 in WM115 cells.

For the compound `CC(=O)N(C)[C@H]1CC[C@H](CC(=O)Nc2cc(-c3ccccc3)c(-c3ccc(C4(N)CC4)cc3)nn2)CC1` [Example 72, N-(6-(4-(1-aminocyclopropyl)phenyl)-5-phenylpyridazin-3-yl)-2-(trans-4-(N-methylacetamido)cyclohexyl)acetamide], the 50% inhibitory concentration (IC50) is > 7500 nM on p-Akt1 in LNCaP cells; 35 nM at p-Akt3 in WM115 cells; > 22000 nM at Akt1; 10 nM at Akt3; 460 nM on Akt2; 1400 nM at p-Akt2 in WM115 cells.

On to `CC(=O)N(C)[C@H]1CC[C@H](CC(=O)Nc2cc(-c3ccccc3)c(-c3ccc(C4(N)CC(F)(F)C4)cc3)nn2)CC1` [Example 73, N-(6-(4-(1-amino-3,3-difluorocyclobutyl)phenyl)-5-phenylpyridazin-3-yl)-2-(trans-4-(N-methylacetamido)cyclohexyl)acetamide], for which the IC50 on p-Akt1 in LNCaP cells was > 17000 nM; at p-Akt3 in WM115 cells, 66 nM; on Akt1, > 30000 nM; at Akt3, 22 nM; on Akt2 it was 540 nM; on p-Akt2 in WM115 cells, 12000 nM.

For `N[C@]1(c2ccc(-c3nnc(NC(=O)C[C@H]4CC[C@H](N5CCCC5=O)CC4)cc3-c3ccccc3)cc2)C[C@@H](F)C1` [Example 74, N-(6-(4-(trans-1-amino-3-fluorocyclobutyl)phenyl)-5-phenylpyridazin-3-yl)-2-(trans-4-(2-oxopyrrolidin-1-yl)cyclohexyl)acetamide], the IC50 at p-Akt1 in LNCaP cells was > 30000 nM; on p-Akt3 in WM115 cells, 40 nM; at Akt1, > 30000 nM; at Akt3, 4 nM; at Akt2, 190 nM; at p-Akt2 in WM115 cells it was 1700 nM.

On to `CC(=O)N(C)[C@H]1CC[C@H](CC(=O)Nc2cc(-c3ccsc3)c(-c3ccc([C@]4(N)C[C@H](F)C4)cc3)nn2)CC1` [Example 75, N-(6-(4-(trans-1-amino-3-fluorocyclobutyl)phenyl)-5-(thiophen-3-yl)pyridazin-3-yl)-2-(trans-4-(N-methylacetamido)cyclohexyl)acetamide], for which the IC50 at p-Akt1 in LNCaP cells is > 30000 nM; at p-Akt3 in WM115 cells, 46 nM; at Akt1, > 16000 nM; at Akt3, 18 nM; on Akt2, 580 nM; on p-Akt2 in WM115 cells it was 3200 nM.
